Source: paper PMC6978363, “Chaperone mediated detection of small molecule target binding in cells” (Nature Communications, 2020)

Experiments:
Assay in all cases: biochemical
[1] = molecular target: T1, Abl (Homo sapiens, UniProt P00519); conditions: read-out: % Inhibition (at 10mM)
T1 construct: gene ABL1

[2] = molecular target: T2, Aurora_C (Homo sapiens, UniProt Q9UQB9); conditions: read-out: % Inhibition (at 10mM)
T2 construct: gene AURKC

[3] = molecular target: BTK (Homo sapiens, UniProt Q06187); conditions: read-out: % Inhibition (at 10mM)
[4] = molecular target: T3, Brk (Homo sapiens, UniProt Q13882); conditions: read-out: % Inhibition (at 10mM)
T3 construct: gene PTK6

[5] = molecular target: T4, CDK5/p35 (Homo sapiens, UniProt Q00535); conditions: read-out: % Inhibition (at 10mM)
T4 construct: p35

[6] = molecular target: T5, CHK1 (Homo sapiens, UniProt O14757); conditions: read-out: % Inhibition (at 10mM)
T5 construct: gene CHEK1

[7] = molecular target: T6, CK1_gamma2 (Homo sapiens, UniProt P78368); conditions: read-out: % Inhibition (at 10mM)
T6 construct: gene CSNK1G2
T6 sequence (P78368 whole entry): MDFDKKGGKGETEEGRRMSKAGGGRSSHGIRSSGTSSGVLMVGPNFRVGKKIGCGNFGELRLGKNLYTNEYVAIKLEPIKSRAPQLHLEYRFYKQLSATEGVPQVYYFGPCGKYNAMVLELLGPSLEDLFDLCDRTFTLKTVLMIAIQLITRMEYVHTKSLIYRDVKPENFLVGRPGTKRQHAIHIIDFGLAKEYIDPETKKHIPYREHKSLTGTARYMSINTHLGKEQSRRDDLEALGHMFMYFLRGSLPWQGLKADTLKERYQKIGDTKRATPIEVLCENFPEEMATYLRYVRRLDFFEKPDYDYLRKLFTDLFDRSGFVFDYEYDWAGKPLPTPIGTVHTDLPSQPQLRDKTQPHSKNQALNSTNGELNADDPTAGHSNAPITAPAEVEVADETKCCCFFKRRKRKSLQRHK

[8] = molecular target: T7, CamKII_alpha (Homo sapiens, UniProt Q9UQM7); conditions: read-out: % Inhibition (at 10mM)
T7 construct: gene CAMK2A

[9] = molecular target: T8, CamKII_delta (Homo sapiens, UniProt Q13557); conditions: read-out: % Inhibition (at 10mM)
T8 construct: gene CAMK2D

[10] = molecular target: DYRK4 (Homo sapiens, UniProt Q9NR20); conditions: read-out: % Inhibition (at 10mM)
[11] = molecular target: EphA4 (Homo sapiens, UniProt P54764); conditions: read-out: % Inhibition (at 10mM)
[12] = molecular target: EphA5 (Homo sapiens, UniProt P54756); conditions: read-out: % Inhibition (at 10mM)
[13] = molecular target: FGFR1 (Homo sapiens, UniProt P11362); conditions: read-out: % Inhibition (at 10mM)
[14] = molecular target: T9, GSK3_alpha (Homo sapiens, UniProt P49840); conditions: read-out: % Inhibition (at 10mM)
T9 construct: gene GSK3A

[15] = molecular target: HIPK2 (Homo sapiens, UniProt Q9H2X6); conditions: read-out: % Inhibition (at 10mM)
[16] = molecular target: MELK (Homo sapiens, UniProt Q14680); conditions: read-out: % Inhibition (at 10mM)
[17] = molecular target: T10, MSSK1 (Homo sapiens, UniProt Q9UPE1); conditions: read-out: % Inhibition (at 10mM)
T10 construct: gene SRPK3

[18] = molecular target: NEK4 (Homo sapiens, UniProt P51957); conditions: read-out: % Inhibition (at 10mM)
[19] = molecular target: NEK9 (Homo sapiens, UniProt Q8TD19); conditions: read-out: % Inhibition (at 10mM)
[20] = molecular target: PAK1 (Homo sapiens, UniProt Q13153); conditions: read-out: % Inhibition (at 10mM)
[21] = molecular target: PASK (Homo sapiens, UniProt Q96RG2); conditions: read-out: % Inhibition (at 10mM)
[22] = molecular target: T11, PDK1(direct) (Homo sapiens, UniProt O15530); conditions: read-out: % Inhibition (at 10mM)
T11 construct: gene PDPK1; direct

[23] = molecular target: T12, PKD2 (Homo sapiens, UniProt Q9BZL6); conditions: read-out: % Inhibition (at 10mM)
T12 construct: gene PRKD2
T12 sequence (Q9BZL6 whole entry): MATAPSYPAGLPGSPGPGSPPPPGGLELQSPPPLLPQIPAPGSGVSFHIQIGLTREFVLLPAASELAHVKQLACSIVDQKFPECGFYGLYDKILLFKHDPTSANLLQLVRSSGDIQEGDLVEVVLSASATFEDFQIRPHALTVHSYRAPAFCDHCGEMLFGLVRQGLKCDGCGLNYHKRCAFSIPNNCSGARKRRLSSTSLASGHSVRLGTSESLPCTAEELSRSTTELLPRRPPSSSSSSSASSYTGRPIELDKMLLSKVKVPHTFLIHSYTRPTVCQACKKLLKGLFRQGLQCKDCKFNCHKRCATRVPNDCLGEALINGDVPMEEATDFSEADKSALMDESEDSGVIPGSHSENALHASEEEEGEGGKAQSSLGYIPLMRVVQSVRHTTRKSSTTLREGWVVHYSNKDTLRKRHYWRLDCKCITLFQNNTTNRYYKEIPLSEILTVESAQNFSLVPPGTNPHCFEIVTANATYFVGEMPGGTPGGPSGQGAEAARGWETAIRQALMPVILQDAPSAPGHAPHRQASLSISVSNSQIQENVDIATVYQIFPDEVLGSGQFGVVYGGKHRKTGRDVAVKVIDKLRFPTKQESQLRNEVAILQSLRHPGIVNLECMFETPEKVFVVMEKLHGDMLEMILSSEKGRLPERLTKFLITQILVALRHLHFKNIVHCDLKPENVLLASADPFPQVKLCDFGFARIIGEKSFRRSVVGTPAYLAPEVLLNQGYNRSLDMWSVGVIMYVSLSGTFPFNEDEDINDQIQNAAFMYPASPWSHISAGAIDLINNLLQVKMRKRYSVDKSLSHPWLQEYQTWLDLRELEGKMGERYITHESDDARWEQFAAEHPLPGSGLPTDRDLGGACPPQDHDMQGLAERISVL

[24] = molecular target: PRKAA1 (Homo sapiens, UniProt Q13131); conditions: read-out: % Inhibition (at 10mM)
[25] = molecular target: T13, PRKAA2_B1_G3 (Homo sapiens, UniProt P54646); conditions: read-out: % Inhibition (at 10mM)
T13 construct: gene PRKAA2
T13 sequence (P54646 whole entry): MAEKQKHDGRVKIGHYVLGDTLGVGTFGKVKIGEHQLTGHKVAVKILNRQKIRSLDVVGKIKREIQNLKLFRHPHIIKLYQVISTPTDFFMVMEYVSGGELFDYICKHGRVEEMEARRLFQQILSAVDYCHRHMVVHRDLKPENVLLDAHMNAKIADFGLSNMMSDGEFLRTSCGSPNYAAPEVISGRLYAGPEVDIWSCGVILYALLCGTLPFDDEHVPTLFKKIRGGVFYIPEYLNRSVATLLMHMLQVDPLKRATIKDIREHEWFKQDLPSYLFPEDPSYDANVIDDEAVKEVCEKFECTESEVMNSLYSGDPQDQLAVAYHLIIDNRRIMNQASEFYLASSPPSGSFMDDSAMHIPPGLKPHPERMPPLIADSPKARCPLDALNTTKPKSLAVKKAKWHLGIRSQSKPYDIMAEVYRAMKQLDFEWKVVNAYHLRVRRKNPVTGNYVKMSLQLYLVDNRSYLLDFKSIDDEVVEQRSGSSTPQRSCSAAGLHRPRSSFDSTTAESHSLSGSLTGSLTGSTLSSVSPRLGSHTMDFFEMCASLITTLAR
T13 sequence (Q9UGI9 whole entry partner): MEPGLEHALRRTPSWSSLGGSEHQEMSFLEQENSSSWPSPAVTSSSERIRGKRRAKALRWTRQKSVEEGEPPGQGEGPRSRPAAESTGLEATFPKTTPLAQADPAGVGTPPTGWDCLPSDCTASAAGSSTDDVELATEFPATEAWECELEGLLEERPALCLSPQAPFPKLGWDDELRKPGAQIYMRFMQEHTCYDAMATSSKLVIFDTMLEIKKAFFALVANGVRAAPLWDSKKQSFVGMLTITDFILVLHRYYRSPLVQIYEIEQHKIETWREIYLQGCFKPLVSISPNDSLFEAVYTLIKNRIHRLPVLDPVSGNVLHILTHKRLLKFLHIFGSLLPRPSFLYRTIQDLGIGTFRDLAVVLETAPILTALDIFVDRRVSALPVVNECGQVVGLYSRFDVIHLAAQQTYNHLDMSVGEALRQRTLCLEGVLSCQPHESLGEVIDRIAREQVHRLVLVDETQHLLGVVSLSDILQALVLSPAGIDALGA
T13 sequence (Q9Y478 whole entry partner): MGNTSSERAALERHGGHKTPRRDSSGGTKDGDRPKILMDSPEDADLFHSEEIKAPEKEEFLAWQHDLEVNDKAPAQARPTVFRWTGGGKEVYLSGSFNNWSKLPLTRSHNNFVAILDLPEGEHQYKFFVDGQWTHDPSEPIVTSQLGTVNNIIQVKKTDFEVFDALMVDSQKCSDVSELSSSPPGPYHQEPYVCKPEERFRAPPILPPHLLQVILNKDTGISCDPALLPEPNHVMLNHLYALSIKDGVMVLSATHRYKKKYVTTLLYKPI

[26] = molecular target: T14, PhK_gamma1 (Homo sapiens, UniProt Q16816); conditions: read-out: % Inhibition (at 10mM)
T14 construct: gene PHKG1

[27] = molecular target: ROCK1 (Homo sapiens, UniProt Q13464); conditions: read-out: % Inhibition (at 10mM)
[28] = molecular target: ROCK2 (Homo sapiens, UniProt O75116); conditions: read-out: % Inhibition (at 10mM)
[29] = molecular target: T15, RSK4 (Homo sapiens, UniProt Q9UK32); conditions: read-out: % Inhibition (at 10mM)
T15 construct: gene RPS6KA6

[30] = molecular target: T16, TAO2 (Homo sapiens, UniProt Q9UL54); conditions: read-out: % Inhibition (at 10mM)
T16 construct: gene TAOK2

[31] = molecular target: TXK (Homo sapiens, UniProt P42681); conditions: read-out: % Inhibition (at 10mM)
[32] = molecular target: TYK2 (Homo sapiens, UniProt P29597); conditions: read-out: % Inhibition (at 10mM)
Sequence of TYK2 (P29597 whole entry): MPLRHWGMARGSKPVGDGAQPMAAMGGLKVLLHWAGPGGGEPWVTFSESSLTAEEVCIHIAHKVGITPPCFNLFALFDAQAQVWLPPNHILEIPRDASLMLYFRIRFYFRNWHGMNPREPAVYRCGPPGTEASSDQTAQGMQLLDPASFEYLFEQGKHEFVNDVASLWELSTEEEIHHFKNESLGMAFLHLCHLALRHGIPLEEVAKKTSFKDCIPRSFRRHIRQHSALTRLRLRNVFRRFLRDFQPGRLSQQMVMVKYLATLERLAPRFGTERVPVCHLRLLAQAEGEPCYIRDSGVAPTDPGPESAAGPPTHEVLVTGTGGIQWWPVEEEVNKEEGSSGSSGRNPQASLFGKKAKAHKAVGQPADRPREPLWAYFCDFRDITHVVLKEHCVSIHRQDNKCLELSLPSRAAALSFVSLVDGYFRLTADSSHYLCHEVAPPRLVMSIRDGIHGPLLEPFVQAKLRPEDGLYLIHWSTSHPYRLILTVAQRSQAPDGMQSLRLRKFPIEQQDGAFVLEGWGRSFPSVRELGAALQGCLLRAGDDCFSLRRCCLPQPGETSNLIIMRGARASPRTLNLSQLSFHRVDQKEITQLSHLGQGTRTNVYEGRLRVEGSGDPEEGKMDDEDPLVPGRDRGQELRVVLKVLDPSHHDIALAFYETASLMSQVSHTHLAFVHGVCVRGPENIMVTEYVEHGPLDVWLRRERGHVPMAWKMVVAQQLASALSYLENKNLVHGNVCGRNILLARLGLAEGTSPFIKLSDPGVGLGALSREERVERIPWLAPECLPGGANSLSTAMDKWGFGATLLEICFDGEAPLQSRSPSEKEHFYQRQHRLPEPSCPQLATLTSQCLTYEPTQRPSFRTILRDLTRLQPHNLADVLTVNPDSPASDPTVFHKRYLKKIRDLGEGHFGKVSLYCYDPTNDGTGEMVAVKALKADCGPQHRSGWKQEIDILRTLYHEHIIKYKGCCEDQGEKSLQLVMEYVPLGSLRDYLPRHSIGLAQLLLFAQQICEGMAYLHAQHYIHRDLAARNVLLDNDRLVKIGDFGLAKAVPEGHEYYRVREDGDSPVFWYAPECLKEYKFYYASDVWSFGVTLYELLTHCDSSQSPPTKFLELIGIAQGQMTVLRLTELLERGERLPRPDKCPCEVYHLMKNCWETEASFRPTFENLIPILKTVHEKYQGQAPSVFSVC

[33] = molecular target: T17, YSK1 (Homo sapiens, UniProt O00506); conditions: read-out: % Inhibition (at 10mM)
T17 construct: gene STK25
T17 sequence (O00506 whole entry): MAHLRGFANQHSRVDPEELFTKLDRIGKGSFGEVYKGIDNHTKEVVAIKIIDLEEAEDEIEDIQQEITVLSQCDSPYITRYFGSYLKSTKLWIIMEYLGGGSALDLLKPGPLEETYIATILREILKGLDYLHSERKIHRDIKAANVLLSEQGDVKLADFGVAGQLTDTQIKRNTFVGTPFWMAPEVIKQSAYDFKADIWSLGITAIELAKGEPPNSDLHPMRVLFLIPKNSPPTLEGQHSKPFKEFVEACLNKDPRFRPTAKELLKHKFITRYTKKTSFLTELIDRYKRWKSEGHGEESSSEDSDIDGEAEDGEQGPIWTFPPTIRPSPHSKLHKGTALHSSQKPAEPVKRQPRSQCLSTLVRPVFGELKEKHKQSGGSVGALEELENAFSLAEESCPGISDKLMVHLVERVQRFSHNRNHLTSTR

[34] = molecular target: T18, p38_delta (Homo sapiens, UniProt O15264); conditions: read-out: % Inhibition (at 10mM)
T18 construct: gene MAPK13

[35] = molecular target: T19, p70S6Kb (Homo sapiens, UniProt Q9UBS0); conditions: read-out: % Inhibition (at 10mM)
T19 construct: gene RPS6KB2
T19 sequence (Q9UBS0 whole entry): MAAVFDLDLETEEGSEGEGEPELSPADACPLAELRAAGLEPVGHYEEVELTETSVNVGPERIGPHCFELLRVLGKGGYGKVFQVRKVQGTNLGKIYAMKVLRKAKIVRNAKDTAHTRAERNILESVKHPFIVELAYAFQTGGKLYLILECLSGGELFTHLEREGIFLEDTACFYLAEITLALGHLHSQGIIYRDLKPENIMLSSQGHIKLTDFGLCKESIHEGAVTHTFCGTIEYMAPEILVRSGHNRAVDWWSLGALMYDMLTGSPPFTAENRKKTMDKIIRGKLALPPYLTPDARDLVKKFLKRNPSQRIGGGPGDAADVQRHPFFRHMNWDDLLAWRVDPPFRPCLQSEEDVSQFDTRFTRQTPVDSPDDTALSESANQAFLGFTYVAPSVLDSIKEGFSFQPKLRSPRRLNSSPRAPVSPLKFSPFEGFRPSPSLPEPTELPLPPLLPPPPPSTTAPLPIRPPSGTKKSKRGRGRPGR

[36] = molecular target: DYRK1B (Homo sapiens, UniProt Q9Y463)
Text: (§1) The detection of EGFR (another HER family member) was ambiguous because the peptides used to detect it were also present in ERBB2.

[37] = molecular target: LTK (Homo sapiens, UniProt P29376)
Text: as §1

T2 sequence (Q9UQB9 whole entry): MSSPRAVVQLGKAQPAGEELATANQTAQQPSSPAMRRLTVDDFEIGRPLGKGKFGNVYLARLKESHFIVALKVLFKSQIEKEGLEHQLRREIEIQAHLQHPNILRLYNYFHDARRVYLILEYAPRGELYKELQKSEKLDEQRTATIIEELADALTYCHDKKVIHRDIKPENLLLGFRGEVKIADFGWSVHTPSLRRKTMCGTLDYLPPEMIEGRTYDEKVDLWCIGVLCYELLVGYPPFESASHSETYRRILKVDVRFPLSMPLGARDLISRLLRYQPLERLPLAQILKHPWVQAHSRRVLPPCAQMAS

inhibition [1]: 9% | inhibition [2]: 22.5% | inhibition [3]: 36% | inhibition [4]: 65% | inhibition [5]: 3.5% | inhibition [6]: 4.5% | inhibition [7]: -5% | inhibition [8]: 2.5% | inhibition [9]: 6% | inhibition [10]: 1.5% | inhibition [11]: 9% | inhibition [12]: 2% | inhibition [13]: 4% | inhibition [14]: 10% | inhibition [15]: 6% | inhibition [16]: 5.5% | inhibition [17]: 5% | inhibition [18]: 8.5% | inhibition [20]: 16% | inhibition [21]: 2.5% | inhibition [22]: 9% | inhibition [23]: 80.5% | inhibition [24]: 6% | inhibition [25]: 4% | inhibition [26]: 7.5% | inhibition [27]: -1.5% | inhibition [28]: -0.5% | inhibition [29]: 2.5% | inhibition [30]: -5% | inhibition [31]: 15% | inhibition [32]: 4.5% | inhibition [33]: 5.5% | inhibition [34]: 5.5% | inhibition [35]: 2.5% | inhibition at 10 µM [36]: 3% | inhibition at 10 µM [37]: 0.5%
Structure (SMILES): CC(C)(O)CC(=O)NCCn1ccc2ncnc(Nc3ccc(Oc4cccc(C(F)(F)F)c4)c(Cl)c3)c21 [TAK-285]
inhibition [19]: 0%
